Results published in patent publication US20240400591A1 (Jacobio Pharmaceuticals Co., Ltd., priority 2021, published 2024).
Read-outs that look alike come from different tables or passages of the source.

Experiments:
[1] = biological target: T1, His-p53 Y220C (94-294) protein (Homo sapiens, UniProt P04637, Y220C); experiment: In vitro DNA binding assay (HTRF); type: biochemical; details: % activation normalized to 2 μM Ref-1a high control
T1 construct: His-p53 Y220C (94-294) protein

[2] = system: NUGC-3_P53_Luc single clonal cell line (p53 Y220C); experiment: Reporter gene assay (p53 RE luciferase); type: cell-based; details: luciferase reporter, 6 hours, normalized to Ref-1a (10 μM) high control, read-out: p53(Y220C)_NUGC-3 EC50
Method in brief: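 Luminescence normalised to DMSO-only (0%) and 10 μM Ref-1a (100%) wells gives % activity, fitted by 4-parameter logistic or Excel to yield EC50 at 50%. Reporter line: NUGC-3 with p53 response element-luc2P, compound-treated 6 h at 37 °C.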

[3] = system: NUGC4 (P53 WT); experiment: Cell viability assay (CellTiter-Glo, 6 days), NUGC4; type: cell-based; details: cell viability, 6 days, CellTiter-Glo, read-out: NUGC4 (P53 WT) IC50
Method in brief: (§1)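 After a 6-day compound exposure following overnight plating, ATP luminescence (CellTiter-Glo) gave percent viability relative to DMSO-treated cells and cell-free medium controls. IC50 = concentration at 50% viability, from 4-parameter logistic or Excel fit.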

[4] = system: NUGC3 (P53 Y220C); experiment: Cell viability assay (CellTiter-Glo, 6 days), NUGC3; type: cell-based; details: cell viability, 6 days, CellTiter-Glo, read-out: NUGC3 (P53 Y220C) IC50
Method in brief: as §1

SMILES | EC50 [1] | EC50 ([2]; Homo sapiens, NUGC-3, 6 h) | IC50 ([3]; Homo sapiens, NUGC-4, 144 h) | IC50 ([4]; Homo sapiens, NUGC-3, 144 h) | EC50 ([2]; Homo sapiens, NUGC-3) | EC50 [2] | IC50 [3] | IC50 [4]
COc1cc(P(C)(C)=O)ccc1NCC#Cc1sc2c(N[C@@H]3CCN(C)C[C@@H]3C)cccc2c1CC(F)(F)F [Example 126, (4-((3-(7-(((3S,4R)-1,3-dimethylpiperidin-4-yl)amino)-3-(2,2,2-trifluoroethyl)benzo[b]thiophen-2-yl)prop-2-yn-1-yl)amino)-3-methoxyphenyl)dimethylphosphine oxide] | 36 nM | 80 nM | 2740 nM | 630 nM | – | – | – | –
COc1cc(P(C)(C)=O)ccc1NCC#Cc1sc2c(N[C@@H]3CCN(C4CC5CCC(C4)O5)C[C@@H]3F)cccc2c1CC(F)(F)F (stereo partly drawn) [Example 180, (4-((3-(7-(((3S,4R)-1-(8-oxabicyclo[3.2.1]octan-3-yl)-3-fluoropiperidin-4-yl)amino)-3-(2,2,2-trifluoroethyl)benzo[b]thiophen-2-yl)prop-2-yn-1-yl)amino)-3-methoxyphenyl)dimethylphosphine oxide] | 50 nM | – | 5890 nM | 910 nM | 110 nM | – | – | –
COCC(O)CNC(=O)c1ccc(NCC#Cc2sc3c(NC4CCN(C)CC4F)cccc3c2CC(F)(F)F)c(OC)c1 (stereo not drawn) [Example 59, 4-((3-(7-(((Z)-3-fluoro-1-methylpiperidin-4-yl)amino)-3-(2,2,2-trifluoroethyl)benzo[b]thiophen-2-yl)prop-2-yn-1-yl)amino)-N-(2-hydroxy-3-methoxypropyl)-3-methoxybenzamide] | 73 nM | – | – | – | – | 150 nM | 9820 nM | 1440 nM
CN1CC[C@@H](Nc2cccc3c(CC(F)(F)F)c(C#CCNc4ccc(P(C)(C)=O)cc4Cl)sc23)[C@@H](F)C1 (racemic) [Example 83, (3-chloro-4-((3-(7-(((Z)-3-fluoro-1-methylpiperidin-4-yl)amino)-3-(2,2,2-trifluoroethyl)benzo[b]thiophen-2-yl)prop-2-yn-1-yl)amino)phenyl)dimethylphosphine oxide] | 40 nM | 210 nM | 7960 nM | 1310 nM | – | – | – | –
COc1cc(S(C)(=O)=O)ccc1NCC#Cc1cc2c(N[C@@H]3CCN(C)C[C@@H]3F)cccc2n1CC(F)(F)F [Ref-1a, N-((3S,4R)-3-fluoro-1-methylpiperidin-4-yl)-2-(3-((2-methoxy-4-(methylsulfonyl)phenyl)amino)prop-1-yn-1-yl)-1-(2,2,2-trifluoroethyl)-1H-indol-4-amine, reference compound] | 48 nM | – | 11000 nM | 540 nM | 50 nM | – | – | –
CNC(=O)c1ccc(NCC#Cc2sc3c(N[C@H]4CCN(C)C[C@H]4F)cccc3c2CC(F)(F)F)c(OC)c1 (racemic) [Example 41, 4-((3-(7-(((3R,4S)-3-fluoro-1-methylpiperidin-4-yl)amino)-3-(2,2,2-trifluoroethyl)benzo[b]thiophen-2-yl)prop-2-yn-1-yl)amino)-3-methoxy-N-methylbenzamide] | 57 nM | – | 6140 nM | 1540 nM | 600 nM | – | – | –
COc1cc(N2CCOCC2=O)ccc1NCC#Cc1sc2c(NC3CCN(C)CC3F)cccc2c1CC(F)(F)F (stereo not drawn) [Example 192, 4-(4-((3-(7-((3-fluoro-1-methylpiperidin-4-yl)amino)-3-(2,2,2-trifluoroethyl)benzo[b]thiophen-2-yl)prop-2-yn-1-yl)amino)-3-methoxyphenyl)morpholin-3-one] | 34 nM | – | 7610 nM | 1190 nM | 130 nM | – | – | –
COc1cc(P(C)(C)=O)ccc1NCC#Cc1sc2c(N[C@@H]3CCN(C(C)C)C[C@@H]3F)cccc2c1CC(F)(F)F (racemic) [Example 86, (4-((3-(7-(((Z)-3-fluoro-1-isopropylpiperidin-4-yl)amino)-3-(2,2,2-trifluoroethyl)benzo[b]thiophen-2-yl)prop-2-yn-1-yl)amino)-3-methoxyphenyl)dimethylphosphine oxide] | 37 nM | 140 nM | 4560 nM | 790 nM | – | – | – | –
CNC(=O)c1ccc(NCC#Cc2sc3c(N[C@@H]4CCN(C)C[C@@H]4F)cccc3c2CC(F)(F)F)c(OC)c1 [Example 113, 4-((3-(7-(((3S,4R)-3-fluoro-1-methylpiperidin-4-yl)amino)-3-(2,2,2-trifluoroethyl)benzo[b]thiophen-2-yl)prop-2-yn-1-yl)amino)-3-methoxy-N-methylbenzamide] | 44 nM | 70 nM | 6100 nM | 930 nM | – | – | – | –
CNC(=O)c1ccc(NCC#Cc2cc3c(N[C@@H]4CCN(C)C[C@@H]4F)cccc3n2CC(F)(F)F)c(OC)c1 [Example 110, 4-((3-(4-(((3S,4R)-3-fluoro-1-methylpiperidin-4-yl)amino)-1-(2,2,2-trifluoroethyl)-1H-indol-2-yl)prop-2-yn-1-yl)amino)-3-methoxy-N-methylbenzamide] | 27 nM | 40 nM | 14200 nM | 1020 nM | – | – | – | –
CNC(=O)c1ccc(NCC#Cc2sc3c(N[C@H]4CCN(C)C[C@H]4F)cccc3c2CC(F)(F)F)c(OC)c1 [Example 112, 4-((3-(7-(((3R,4S)-3-fluoro-1-methylpiperidin-4-yl)amino)-3-(2,2,2-trifluoroethyl)benzo[b]thiophen-2-yl)prop-2-yn-1-yl)amino)-3-methoxy-N-methylbenzamide] | 135 nM | 270 nM | 7510 nM | 2090 nM | – | – | – | –
CNC(=O)c1ccc(NCC#Cc2cc3c(N[C@@H]4CCN(C)C[C@@H]4F)cccc3n2CC(F)(F)F)c(OC)c1 [Example 57, 4-((3-(4-(((Z)-3-fluoro-1-methylpiperidin-4-yl)amino)-1-(2,2,2-trifluoroethyl)-1H-indol-2-yl)prop-2-yn-1-yl)amino)-3-methoxy-N-methylbenzamide] | 29 nM | – | 12000 nM | 1110 nM | 80 nM | – | – | –
COc1cc(P(C)(C)=O)ccc1NCC#Cc1sc2c(NC3C4CCC3CN(C)C4)cccc2c1CC(F)(F)F (stereo not drawn) [Example 124, (3-methoxy-4-((3-(7-((3-methyl-3-azabicyclo[3.2.1]octan-8-yl)amino)-3-(2,2,2-trifluoroethyl)benzo[b]thiophen-2-yl)prop-2-yn-1-yl)amino)phenyl)dimethylphosphine oxide] | 143 nM | – | 7230 nM | 2310 nM | 470 nM | – | – | –
COc1cc(P(C)(C)=O)ccc1NCC#Cc1sc2c(NC3C(C)CN(C)CC3C)cccc2c1CC(F)(F)F (stereo not drawn) [Example 131, (3-methoxy-4-((3-(3-(2,2,2-trifluoroethyl)-7-(((Z)-1,3,5-trimethylpiperidin-4-yl)amino)benzo[b]thiophen-2-yl)prop-2-yn-1-yl)amino)phenyl)dimethylphosphine oxide] | 33 nM | – | 2540 nM | 660 nM | 70 nM | – | – | –
[2H]C([2H])([2H])Oc1cc(P(C)(C)=O)ccc1NCC#Cc1sc2c(N[C@@H]3CCN(C)C[C@@H]3F)cccc2c1CC(F)(F)F [Example 174, (4-((3-(7-(((3S,4R)-3-fluoro-1-methylpiperidin-4-yl)amino)-3-(2,2,2-trifluoroethyl)benzo[b]thiophen-2-yl)prop-2-yn-1-yl)amino)-3-(methoxy-d3)phenyl)dimethylphosphine oxide] | 15 nM | – | 5930 nM | 350 nM | 60 nM | – | – | –
